Results from patent publication US6136992A, “2-alkoxy estradiols and derivatives thereof” (The United States of America as represented by the …, priority 1998, dated 2000).
Read-outs that look alike come from different tables or passages of the source.

Assays:
Assay type in all cases: cell-based
SF-295 = assay: NCI screen, CNS cancer; settings: Homo sapiens, read-out: Log10 GI50, SF-295 (converted)
MCF7 = assay: NCI screen, breast cancer; settings: Homo sapiens, read-out: Log10 GI50, MCF7 (converted)
MOLT-4 = assay: NCI screen, leukemia; settings: Homo sapiens, read-out: Log10 GI50, MOLT-4 (converted)
NCIH-522 = assay: NCI screen, non-small cell lung cancer; settings: Homo sapiens, NCI-H522, read-out: Log10 GI50, NCIH-522 (converted)
UO-31 = assay: NCI screen, renal cancer; settings: Homo sapiens, read-out: Log10 GI50, UO-31 (converted)
786-0 = assay: NCI screen, renal cancer; settings: Homo sapiens, read-out: Log10 GI50, 786-0 (converted)
RXF 393 = assay: NCI screen, renal cancer; settings: Homo sapiens, read-out: Log10 GI50, RXF 393 (converted)
[1] = system: DU-145 prostate cancer cells; assay: NCI in vitro anticancer screen, DU-145 prostate cancer; settings: Homo sapiens
Excerpt: (§1) The effects of the analogs on cancer cell growth was investigated in the National Cancer Institute (NCI) Developmental Therapeutics Program's in vitro panel of approximately 55 cell lines (Grever et al., Seminars in Oncology 19:622 (1992), Alley et al., Cancer Research 48:589 (1988) and Montes et al., J. National Cancer Institute 83:757 (1991)). Representative results are listed in Table 1 for HOP-62 non-small-cell lung cancer cells, HCT-116 colon cancer cells, SF-539 central nervous system (CNS) cancer cells, UACC-62 melanoma cells, OVCAR ovarian cancer cells, SN12-C renal cancer cells, DU-145 prostate cancer cells, and MDA-MB-435 breast cancer cells.
(§2) ^a The cytotoxicity GI50 values are the concentrations

CCRF-CEM = assay: NCI screen, leukemia; settings: Homo sapiens, read-out: Log10 GI50, CCRF-CEM (converted)
SW-260 = assay: NCI screen, colon cancer; settings: Homo sapiens, read-out: Log10 GI50, SW-260 (converted)
A549/ATCC = assay: NCI screen, non-small cell lung cancer; settings: Homo sapiens, read-out: Log10 GI50, A549/ATCC (converted)
[2] = system: HOP-62 non-small-cell lung cancer cells; assay: NCI in vitro anticancer screen, HOP-62 non-small-cell lung cancer; settings: Homo sapiens
Excerpt: as §1, §2

SNB-75 = assay: NCI screen, CNS cancer; settings: Homo sapiens, read-out: Log10 GI50, SNB-75 (converted)
NCI-H322M = assay: NCI screen, non-small cell lung cancer; settings: Homo sapiens, read-out: Log10 GI50, NCI-H322M (converted)
M14 = assay: NCI screen, melanoma; settings: Homo sapiens, read-out: Log10 GI50, M14 (converted)
SK-MEL-28 = assay: NCI screen, melanoma; settings: Homo sapiens, read-out: Log10 GI50, SK-MEL-28 (converted)
LOX IMVI = assay: NCI screen, melanoma; settings: Homo sapiens, read-out: Log10 GI50, LOX IMVI (converted)
SNB-19 = assay: NCI screen, CNS cancer; settings: Homo sapiens, read-out: Log10 GI50, SNB-19 (converted)
HS 578T = assay: NCI screen, breast cancer; settings: Homo sapiens, read-out: Log10 GI50, HS 578T (converted)
HTC-15 = assay: NCI screen, colon cancer; settings: Homo sapiens, read-out: Log10 GI50, HTC-15 (converted)
BT-549 = assay: NCI screen, breast cancer; settings: Homo sapiens, read-out: Log10 GI50, BT-549 (converted)
ACHN = assay: NCI screen, renal cancer; settings: Homo sapiens, read-out: Log10 GI50, ACHN (converted)
NCI-H23 = assay: NCI screen, non-small cell lung cancer; settings: Homo sapiens, read-out: Log10 GI50, NCI-H23 (converted)
NCI-H460 = assay: NCI screen, non-small cell lung cancer; settings: Homo sapiens, read-out: Log10 GI50, NCI-H460 (converted)
U251 = assay: NCI screen, CNS cancer; settings: Homo sapiens, U-251, read-out: Log10 GI50, U251 (converted)
[3] = system: SF-539 central nervous system (CNS) cancer cells; assay: NCI in vitro anticancer screen, SF-539 CNS cancer; settings: Homo sapiens
Excerpt: as §1, §2

MDA-N = assay: NCI screen, breast cancer; settings: Homo sapiens, read-out: Log10 GI50, MDA-N (converted)
K562 = assay: NCI screen, leukemia; settings: Homo sapiens, read-out: Log10 GI50, K562 (converted)
[4] = system: MDA-MB-435 breast cancer cells; assay: NCI in vitro anticancer screen, MDA-MB-435 breast cancer; settings: Homo sapiens
Excerpt: The effects of the analogs on cancer cell growth was investigated in the National Cancer Institute (NCI) Developmental Therapeutics Program's in vitro panel of approximately 55 cell lines (Grever et al., Seminars in Oncology 19:622 (1992), Alley et al., Cancer Research 48:589 (1988) and Montes et al., J. National Cancer Institute 83:757 (1991)).

Measured: GI50

C[C@]12CC[C@@H]3c4cc(OCC(F)(F)F)c(O)cc4C(=NO)C[C@H]3[C@@H]1CC[C@@H]2O [Compound 12, 2-(2',2', 2'-Trifluoroethoxy)-6-Hydroximino-Estra-1,3,5(10)-Triene-3,17β-Diol]
< 10 nM: SF-295 | MCF7 | MOLT-4 | NCIH-522 | UO-31 | 786-0 | RXF 393 | [1]; DU-145, read-out: cytotoxicity GI50, Prostate DU-145 | [1]; DU-145, Prostate Cancer, read-out: Log10 GI50, DU-145 (converted) | CCRF-CEM | SW-260 | A549/ATCC | [2]; HOP-62, read-out: cytotoxicity GI50, Lung HOP-62 | [2]; HOP-62, Non-Small Cell Lung Cancer, read-out: Log10 GI50, HOP-62 (converted) | SNB-75 | NCI-H322M | M14 | SK-MEL-28 | LOX IMVI | SNB-19 | HS 578T | HTC-15 | BT-549 | ACHN | NCI-H23 | NCI-H460 | U251 | [3]; SF-539, CNS Cancer, read-out: Log10 GI50, SF-539 (converted) | [3]; read-out: cytotoxicity GI50, CNS SF-539 | MDA-N | K562 | [4]; MDA-MB-435, read-out: cytotoxicity GI50, Breast MDA-MB-435 | [4]; MDA-MB-435, Breast Cancer, read-out: Log10 GI50, MDA-MB-435 (converted)
